Assay [1] concerns the target PDE4. Briefly: In vitro enzyme assay, PDE4 inhibitory activity. The class given is biochemical. The note with it: PDE4 enzyme solution from U937 cells (derived from human monocyte), 3H-cAMP substrate, room temperature, 30 minutes; read-out: IC50 (concentration of 50% inhibition of PDE4 activity). On the procedure:
U937 cells (derived from human monocyte) were cultured in PRMI 1640 medium containing 10% bovine fetal serum. The U937 cells were harvested and homogenized in 50 mM Tris-HCl buffer [pH 7.5, containing PMSF (1 mM), leupeptin (1 μg/ml) and pepstatin A (1 μg/ml)]. After centrifugation (at 15,000 rpm for 10 minutes), the supernatant was recovered and filtered through a 0.45 μm filter. The sample was applied to MonoQ (manufactured by Pharmacia, strong anion exchange resin) column and eluted by a density gradient of 0 to 0.8 M NaCl. Fractions from which the PDE activity was disappeared by 10 μM rolipram (a PDE4-selective inhibitor) were recovered and used as the enzyme solution for the measurement of PDE4 inhibitory activity.
The enzyme activity was measured by the following method. […] To an alumina column (100 μl), was applied 50 μl of the supernatant, eluted with 80 μl of 0.005 N hydrochloric acid, and radioactivity of the eluate was measured.
PDE4 inhibitory activity ratio of the compound of the present invention of formula (I) was calculated by the following equation: PDE4 activity inhibitory ratio (%)=(1−radioactivity in the presence of the compound of the present invention of formula (1)/radioactivity in the absence of the compound of the present invention of formula (I))×100 […]

Assay [2] deals with TNF-α production. Briefly: TNF-α production inhibitory effect in LPS-stimulated heparinized blood. The note with it: blood of a healthy person, 6 hours incubation, human TNF-α ELISA. The class given is cell-based. How it is done: A heparinized blood sample collected from a healthy person was dispensed in 180 μl/well into a 96-well plate. A solution of compound 1 (final concentration of DMSO: 0.1% or less) was dispensed at 10 μl and the plate was allowed to stand at 37° C. for 30 minutes in a 5% CO2 incubator. The reaction was initiated by adding 10 μl of LPS solution. After 6 hours of incubation in a CO2 incubator (5% CO2, humidified), the plate was shaken and then centrifuged at 300×g for 5 minutes to recover 50 μl of the supernatant (blood plasma). The amount of TNF-α in the supernatant was measured using a human TNF-α ELISA kit (DIACLONE Cat. No. 850.090.096) in accordance with the method attached thereto.
(In an ELISA, binding on a coated surface is turned into a signal by an enzyme label.)

For the compound `N#CC1(c2ccc(OC(F)F)c(OC3CCCC3)c2)CCN(CC(=O)O)CC1` [compound 1, 2-(4-(3-cyclopentyloxy-4-difluoromethoxyphenyl)-4-cyanopiperidin-1-yl)acetic acid monohydrate], the IC50 in assay [1] stood at 42 nM. In addition, in assay [2], the “inhibitory activity against TNF-α production” value is given as “dose-dependent inhibitory activity”.

The values above are taken from US7425567B2, “Piperidine derivative compounds and drugs containing the compounds as the active ingredient” (Ono Pharmaceutical Co., Ltd., priority 2002, dated 2008).
